# Test results: patent EP4417201A1, “PHARMACEUTICAL COMPOSITIONS FOR USE IN CANCER TREATMENT” (Robert Bosch Gesellschaft für medizinische Forschung mbH, priority 2023, dated 2024)
# Molecular target: T1, purified porcine tubulin (Sus scrofa, UniProt P02550+P02554)
# T1 construct: purchased Cytoskeleton, Denver, CO, USA BK006P
# Experiment: Tubulin polymerization assay
# Format: biochemical
# Settings: 10 µM, absorbance at 340 nm, 35°C
# Protocol: A tubulin polymerization assay kit (part# BK006P, Cytoskeleton, Denver, CO, USA) was used to address the direct effects of chemical compounds on tubulin polymerization dynamics. A porcine >99% pure tubulin preparation (3 mg/ml) free of microtubule-associated proteins in 80 mM PIPES pH 6.9, 2 mM MgCl2, 0.5 mM EGTA, 1 mM GTP, and 10.2% glycerol was incubated with Formula A-1 (100 µM), Formula A-2(100 µM), paclitaxel (10 µM), or buffer. Microtubule polymerization was initiated by tubulin addition; changes in microtubule turbidity were measured kinetically at 340 nm at 35°C (EnSpire Multimode Plate Reader 2300, PerkinElmer).
# To determine whether the influence of compounds of Formula A-1 and Formula A-2 on microtubule formation was due to on-target activity, the direct effect of chalcone compounds of Formula A on tubulin polymerization rates was examined by incubation of purified porcine tubulin with Formula A-1 or Formula A-2 and comparison of the results with those of paclitaxel, a well-established microtubule-stabilizing agent. Microtubule formation was measured kinetically at an absorbance of 340 nm.
# T1 sequence (P02550 whole entry): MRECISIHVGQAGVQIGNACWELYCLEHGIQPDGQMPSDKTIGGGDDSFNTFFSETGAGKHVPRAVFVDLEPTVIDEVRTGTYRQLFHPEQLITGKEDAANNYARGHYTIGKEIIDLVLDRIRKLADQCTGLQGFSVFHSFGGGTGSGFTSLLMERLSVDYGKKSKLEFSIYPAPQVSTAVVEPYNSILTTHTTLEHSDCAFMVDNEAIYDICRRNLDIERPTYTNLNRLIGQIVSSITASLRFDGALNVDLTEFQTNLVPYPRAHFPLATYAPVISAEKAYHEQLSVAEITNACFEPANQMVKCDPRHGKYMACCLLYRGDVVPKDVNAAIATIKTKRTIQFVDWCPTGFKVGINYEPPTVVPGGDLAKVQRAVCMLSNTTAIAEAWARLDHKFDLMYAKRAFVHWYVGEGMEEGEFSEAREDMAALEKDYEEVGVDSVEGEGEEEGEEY
# T1 sequence (P02554 whole entry): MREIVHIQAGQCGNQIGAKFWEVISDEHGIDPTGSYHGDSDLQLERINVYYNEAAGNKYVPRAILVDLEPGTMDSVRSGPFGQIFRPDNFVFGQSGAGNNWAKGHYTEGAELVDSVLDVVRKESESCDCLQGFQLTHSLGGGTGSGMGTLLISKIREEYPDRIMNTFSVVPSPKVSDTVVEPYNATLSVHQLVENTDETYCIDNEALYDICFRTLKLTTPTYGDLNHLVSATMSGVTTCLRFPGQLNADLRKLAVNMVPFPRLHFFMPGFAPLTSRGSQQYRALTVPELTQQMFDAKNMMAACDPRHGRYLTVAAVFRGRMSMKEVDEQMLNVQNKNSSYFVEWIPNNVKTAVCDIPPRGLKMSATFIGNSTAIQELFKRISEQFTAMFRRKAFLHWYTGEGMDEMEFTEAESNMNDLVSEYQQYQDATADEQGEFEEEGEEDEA
smiles,measurement,value
CC(=O)O[C@H]1C(=O)[C@@]2(C)[C@H]([C@H](OC(=O)c3ccccc3)[C@]3(O)C[C@H](OC(=O)[C@H](O)[C@@H](NC(=O)c4ccccc4)c4ccccc4)C(C)=C1C3(C)C)[C@]1(OC(C)=O)CO[C@@H]1C[C@@H]2O [paclitaxel],tubulin polymerization,the kinetics of tubulin polymerization is enhanced and the polymerization equilibrium shifts towards polymerized tubulin
